The source of these data is ChEMBL document CHEMBL1146629, “Synthesis and evaluation of phosphoramidate amino acid-based inhibitors of sialyltransferases” (Bioorg Med Chem Lett, 2003).

SMILES strings stand for the structures.

Assay [1] has as its target T1, Beta-galactoside alpha-2,6-sialyltransferase 1 (Rattus norvegicus, UniProt P13721).
T1 sequence (P13721 whole entry): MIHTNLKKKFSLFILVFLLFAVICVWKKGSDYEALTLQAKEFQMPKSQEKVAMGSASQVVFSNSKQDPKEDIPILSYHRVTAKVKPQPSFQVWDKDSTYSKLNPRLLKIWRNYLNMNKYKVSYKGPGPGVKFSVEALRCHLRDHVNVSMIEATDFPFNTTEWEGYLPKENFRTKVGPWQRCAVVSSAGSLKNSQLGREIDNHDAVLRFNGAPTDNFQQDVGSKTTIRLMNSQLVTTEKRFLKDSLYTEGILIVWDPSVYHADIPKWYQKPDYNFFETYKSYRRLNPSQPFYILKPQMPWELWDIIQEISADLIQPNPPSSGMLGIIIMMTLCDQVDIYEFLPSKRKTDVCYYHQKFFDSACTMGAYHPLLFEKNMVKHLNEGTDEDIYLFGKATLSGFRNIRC
The assay can be described thus: Inhibitory activity evaluated against alpha-2,6-sialyltransferase from rat liver.

The target of assay [2] is T2, CMP-N-acetylneuraminate-beta-1,4-galactoside alpha-2,3-sialyltransferase (Rattus norvegicus, UniProt Q02734).
T2 sequence (Q02734 whole entry): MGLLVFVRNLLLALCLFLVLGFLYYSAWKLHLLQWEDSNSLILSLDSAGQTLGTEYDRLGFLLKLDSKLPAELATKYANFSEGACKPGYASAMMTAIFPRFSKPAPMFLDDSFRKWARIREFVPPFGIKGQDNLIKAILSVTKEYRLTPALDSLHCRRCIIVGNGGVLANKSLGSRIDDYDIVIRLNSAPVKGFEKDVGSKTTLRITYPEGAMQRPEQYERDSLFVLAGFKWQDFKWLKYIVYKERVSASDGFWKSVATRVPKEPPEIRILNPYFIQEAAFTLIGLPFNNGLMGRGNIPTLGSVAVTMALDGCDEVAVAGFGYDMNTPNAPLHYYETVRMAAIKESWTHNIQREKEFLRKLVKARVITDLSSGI
The assay can be described thus: Inhibitory activity evaluated against alpha-2,3-sialyltransferase from rat liver.

As to `Nc1ccn([C@@H]2O[C@H](COP(=O)(O)O)[C@@H](O)[C@H]2O)c(=O)n1`, the Ki (usually a dissociation constant, usually derived from enzyme kinetics or from competition with a known ligand) in assay [1] was determined as 64 µM; in assay [2], 65 µM.
On the same counts, the results for `Nc1ccn(C2O[C@H](COP(=O)(O)OCC(=O)O)C(O)[C@H]2O)c(=O)n1` (single isomer, unassigned) are 370 µM and 710 µM.
With `Nc1ccn(C2O[C@H](COP(=O)(O)N[C@@H](Cc3ccccc3)C(=O)O)C(O)[C@H]2O)c(=O)n1` (single isomer, unassigned), the Ki turned out to be 3800 µM in assay [1] and 2300 µM in assay [2].
With `Nc1ccn(C2O[C@H](COP(=O)(O)N[C@@H](CC(=O)O)C(=O)O)C(O)[C@H]2O)c(=O)n1` (single isomer, unassigned), the results for the Ki in assay [1] and in assay [2] were 2200 µM and 5100 µM, respectively.
The like results for `C[C@H](NP(=O)(O)OC[C@H]1OC(n2ccc(N)nc2=O)[C@H](O)C1O)C(=O)O` (single isomer, unassigned) were, in that order, 1700 µM and 2300 µM.
On the same counts, the results for `CC(C)C[C@H](NP(=O)(O)OC[C@H]1OC(n2ccc(N)nc2=O)[C@H](O)C1O)C(=O)O` (single isomer, unassigned) are 2500 µM and 900 µM.
In the case of `Nc1ccn(C2O[C@H](COP(=O)(O)N[C@@H](Cc3c[nH]c4ccccc34)C(=O)O)C(O)[C@H]2O)c(=O)n1` (single isomer, unassigned), the Ki was 730 µM in assay [1] and 300 µM in assay [2].
On the same counts, the results for `Nc1ccn(C2O[C@H](COP(=O)(O)NCC(=O)O)C(O)[C@H]2O)c(=O)n1` (single isomer, unassigned) are 2400 µM and 5300 µM.
